Measurements reported in the Deep4Chem optical property database.
Several values for one entry are separate records, joined by “and”; a condition that tells them apart may be missing. Equal values may be shown once. Each block holds one molecule with its values, some of them ahead of it.

Test: solvent given as SMILES

SMILES: Cc1cc(Br)cn(Cn2cccc(C)c2=O)c1=N
absorption maximum (in CC(=O)O): 310 nm

SMILES: CN(C)c1ccc2c(c1)[Si](C)(C)C1=CC(=[N+](C)C)C=CC1=C2
absorption maximum (in CO): 636 nm
absorption maximum (in O): 634 nm

SMILES: COc1ccc(-c2nc3c(c4c2-c2ccc(C#N)cc2CC4)-c2ccc(C#N)cc2CC3)cc1
absorption maximum (in C1CCOC1): 332 nm
absorption maximum (in CC#N): 329 nm
absorption maximum (in CCCCCC): 336 nm
absorption maximum (in CCOC(C)=O): 324 nm
absorption maximum (in CO): 326 nm
absorption maximum (in CS(C)=O): 331 nm
absorption maximum (in Cc1ccccc1): 334 nm
absorption maximum (in ClCCl): 333 nm

SMILES: CCN(CC)c1ccc(/C=N/C(C#N)=C(C#N)\N=C\c2ccc(N(CC)CC)cc2O)c(O)c1
absorption maximum (in CC#N): 564 nm

SMILES: N#Cc1ccccc1N1c2ccccc2C(c2ccccc2)(c2ccccc2)c2ccccc21
absorption maximum (in Cc1ccccc1): 356 nm

SMILES: COc1ccc2c(c1)-c1nc(-c3ccccc3)c3ccccc3[n+]1[B-](F)(F)O2
absorption maximum (in Cc1ccccc1): 434 nm

SMILES: COC(=O)c1ccc2ccc3cccc4ccc1c2c34
absorption maximum (in C1CCOC1): 379 nm
absorption maximum (in CC#N): 379 nm
absorption maximum (in CCCCCC): 379 nm
absorption maximum (in CCO): 380 nm
absorption maximum (in CN(C)C=O): 380 nm
absorption maximum (in CO): 379 nm
absorption maximum (in Cc1ccccc1): 381 nm
absorption maximum (in ClCCl): 379 nm

SMILES: CN(C)c1ccc(N2c3sc4ccccc4c3Sc3sc4ccccc4c32)cc1
absorption maximum (in ClCCl): 319 nm

SMILES: Cc1cc(C)c(B(c2c(C)cc(C)cc2C)c2ccc3ccc4cccc5ccc2c3c45)c(C)c1
absorption maximum (in Cc1ccccc1): 399 nm

SMILES: CC1=[N+]2C(=C(c3ccc(N4CCOCC4)cc3)c3ccc(C)n3[B-]2(F)F)C=C1
absorption maximum (in C1CCCCC1): 509 nm
absorption maximum (in C1CCOC1): 507 nm
absorption maximum (in CC#N): 504 nm and 505 nm
absorption maximum (in CC(=O)C(C)(C)C): 506 nm
absorption maximum (in CC(C)=O): 505 nm
absorption maximum (in CCCCCC): 508 nm
absorption maximum (in CCOC(C)=O): 506 nm
absorption maximum (in CO): 505 nm
absorption maximum (in Cc1ccccc1): 511 nm
absorption maximum (in ClC(Cl)Cl): 511 nm

SMILES: CCCCn1c2ccccc2c2ccc3c4cc(-c5cccc(F)c5)ccc4n(CCCC)c3c21
absorption maximum (in ClC(Cl)Cl): 328 nm

SMILES: O=c1[nH]c2ccccc2[nH]1
absorption maximum (in C1CCOC1): 291 nm
absorption maximum (in CC#N): 281 nm
absorption maximum (in CC(C)=O): 285 nm
absorption maximum (in CCCCCCC): 292 nm
absorption maximum (in CCCCCl): 287 nm
absorption maximum (in CCCCO): 280 nm
absorption maximum (in CCCO): 280 nm
absorption maximum (in CCCOCCC): 280 nm
absorption maximum (in CCO): 280 nm

SMILES: CC(C)(C)c1cc2ccc3cccc4c3c2c(c1)c1nc2c3cc(C(C)(C)C)cc5ccc6cccc(c(=O)n2c41)c6c53
absorption maximum (in C1CCOC1): 395 nm
absorption maximum (in CC#N): 389 nm
absorption maximum (in CC(C)=O): 391 nm
absorption maximum (in CCCCCC): 393 nm
absorption maximum (in CCO): 390 nm
absorption maximum (in CCOC(C)=O): 390 nm
absorption maximum (in CO): 382 nm
absorption maximum (in CS(C)=O): 391 nm
absorption maximum (in Cc1ccc(C)cc1): 392 nm
absorption maximum (in ClC(Cl)(Cl)Cl): 395 nm
absorption maximum (in ClC(Cl)Cl): 395 nm
absorption maximum (in c1ccccc1): 395 nm

SMILES: COC(=O)C(Cc1ccc2oc(-c3ccc(N(C)C)cc3)nc2c1)NC(=O)OC(C)(C)C (stereo unspecified)
absorption maximum (in C1CCCCC1): 335.1 nm
absorption maximum (in C1CCOC1): 341.8 nm
absorption maximum (in C1COCCO1): 340.8 nm
absorption maximum (in CC1CCCO1): 338.9 nm
absorption maximum (in CC1COC(=O)O1): 345.1 nm
absorption maximum (in CC#N): 343.39 nm
absorption maximum (in CC(C)=O): 343.1 nm
absorption maximum (in CC(C)CC(C)(C)C): 333 nm
absorption maximum (in CC(C)CO): 344.49 nm
absorption maximum (in CC(C)O): 343.9 nm
absorption maximum (in CC(C)OC(C)C): 339.5 nm
absorption maximum (in CC(O)CO): 349.5 nm
absorption maximum (in CCC(C)CC): 333 nm
absorption maximum (in CCCCC): 332.9 nm
absorption maximum (in CCCCCC): 333.6 nm
absorption maximum (in CCCCCCCCC): 334.9 nm
absorption maximum (in CCCCCCCCCC): 334.9 nm
absorption maximum (in CCCCCCCO): 345.7 nm
absorption maximum (in CCCCCCO): 345.6 nm
absorption maximum (in CCCCCO): 342.7 nm
absorption maximum (in CCCCO): 345.9 nm
absorption maximum (in CCO): 346.6 nm
absorption maximum (in CCOC(C)=O): 339.7 nm
absorption maximum (in CCOCC): 338.2 nm
absorption maximum (in CN(C)C=O): 346.5 nm
absorption maximum (in CO): 346.5 nm
absorption maximum (in COCCOC): 343.9 nm
absorption maximum (in CS(C)=O): 348.5 nm
absorption maximum (in Cc1ccccc1): 342 nm
absorption maximum (in Cc1ccccc1C): 341.4 nm
absorption maximum (in ClC(Cl)Cl): 344.6 nm
absorption maximum (in ClCCl): 344.49 nm
absorption maximum (in NC=O): 349.41 nm
absorption maximum (in OC1CCCCC1): 346.5 nm
absorption maximum (in OCCO): 351.9 nm
absorption maximum (in c1ccccc1): 342.99 nm

SMILES: CCCCCN(c1ccccc1)c1ccc2c(c1)C(CC)(CC)c1cc(/C=C/c3ccc(/C=C(\C#N)C(=O)O)s3)ccc1-2
absorption maximum (in C1CCOC1): 456 nm
absorption maximum (in C1COCCO1): 464 nm
absorption maximum (in CC#N): 430 nm
absorption maximum (in CC(C)=O): 464 nm
absorption maximum (in CCOC(C)=O): 460 nm
absorption maximum (in CN(C)C=O): 418 nm
absorption maximum (in CS(C)=O): 430 nm
absorption maximum (in ClCCl): 470 nm

SMILES: Cc1ccccc1-c1ccccc1C
absorption maximum (in C1CCCCC1): 260.08 nm

SMILES: c1csc(-c2ccc3c4ccc(-c5cccs5)cc4n(-c4cccs4)c3c2)c1
absorption maximum (in ClCCl): 352 nm

SMILES: c1ccc(N(c2ccccc2)c2ccc(-c3ncc(-c4ccc(-c5ccc(-c6cnc(-c7ccc(N(c8ccccc8)c8ccccc8)cc7)s6)s5)s4)s3)cc2)cc1
absorption maximum (in CO): 425 nm

SMILES: Cn1cc(/C=C/C(=O)c2ccccc2)c2ccccc21
absorption maximum (in CC#N): 381.03 nm
absorption maximum (in CO): 391.71 nm

SMILES: c1ccc(Cn2c3sccc3c3c4nsnc4c4c5ccsc5n(Cc5ccccc5)c4c32)cc1
absorption maximum (in Cc1ccccc1): 424 nm
absorption maximum (in ClCCl): 424 nm

SMILES: CC(C)(C)c1ccc2c(c1)c1cc(C(C)(C)C)ccc1n2-c1ccc2oc3nc4oc5ccc(C(F)(F)F)cc5c4cc3c2c1
absorption maximum (in C1CCCCC1): 343 nm
absorption maximum (in C1CCOC1): 338 nm
absorption maximum (in CC#N): 336 nm
absorption maximum (in CS(C)=O): 337 nm
absorption maximum (in Cc1ccccc1): 343 nm
absorption maximum (in ClC(Cl)Cl): 345 nm

SMILES: CCCCC1(CCCC)c2cc(-c3ccc(C=C4C(=O)c5ccccc5C4=O)cc3)ccc2-c2ccc(-c3ccc(C=C4C(=O)c5ccccc5C4=O)cc3)cc21
absorption maximum (in C1CCOC1): 438 nm
absorption maximum (in CC(C)=O): 435 nm
absorption maximum (in CCCCCC): 418 nm
absorption maximum (in CS(C)=O): 445 nm
absorption maximum (in Cc1ccccc1): 437 nm
absorption maximum (in ClC(Cl)Cl): 445 nm

SMILES: c1ccc(-c2ccc(-c3cc(-c4ccccn4)nc(-c4ccccn4)c3)cc2)cc1
absorption maximum (in ClCCl): 291 nm

SMILES: CCCCCCn1c2ccccc2c2cc3c4cc5c6ccccc6n(CCCCCC)c5cc4c4cc5c(C)cc(=O)oc5cc4c3cc21
absorption maximum (in ClC(Cl)Cl): 393 nm

Results, then the molecule that gave them:

absorption maximum (in C1CCCCC1): 406 nm
SMILES: Cc1cc(C)c(B2c3cc(C(C)(C)C)ccc3-c3c(-c4ccccc4)ccc4cc(C(C)(C)C)cc2c34)c(C)c1

absorption maximum (in ClCCl): 400 nm
SMILES: [O-][n+]1c(/C=C/C=C/c2ccccc2)nc(N2CCOCC2)c2c1CCCC2

absorption maximum (in ClCCl): 370 nm
SMILES: Cc1ccc2nc3cc4c(cc3c(-c3ccccc3)c2c1)[Si](C)(C)O[Si]4(C)C

absorption maximum (in ClCCl): 543 nm
SMILES: CN(C)c1ccc(C2=CC3=C(c4ccc(C=C(C#N)C#N)cc4)[C@H]4c5ccccc5[C@]3(S2)c2ccccc24)cc1

absorption maximum (in CC#N): 315 nm
SMILES: C(#Cc1nccnc1C#Cc1ccccc1)c1ccccc1

absorption maximum (in ClCCl): 330 nm
SMILES: Cc1c(C)c(-c2cccnc2)c(C)c(C)c1B(c1c(C)c(C)c(-c2cccnc2)c(C)c1C)c1c(C)c(C)c(-c2cccnc2)c(C)c1C

absorption maximum (in C1CCCCC1): 293.94 nm
SMILES: Cc1cccc2ccccc12

absorption maximum (in CC#N): 364 nm
SMILES: N#C/C(=C\c1ccc(Cl)cc1)c1nc(-c2ccccc2)cs1

absorption maximum (in CC#N): 448 nm
SMILES: Cc1cc(C)c2c(c1)nc1c(=O)n(C)c(=O)nc-1n2C

absorption maximum (in ClCCl): 400 nm
SMILES: c1ccc(N(c2ccccc2)c2ccc(-c3nc4c5ccccc5c5ccccc5c4n3-c3ccccc3)cc2)cc1

absorption maximum (in CO): 637 nm
absorption maximum (in CS(C)=O): 645 nm
absorption maximum (in O): 633 nm
SMILES: CCCN1/C(=C/C=C/C=C/C2=[N+](CCC)c3ccccc3C2(C)C)C(C)(C)c2ccccc21

absorption maximum (in CC#N): 348 nm
absorption maximum (in CCCCCCCCCCCCCCCC): 337 nm
absorption maximum (in CO): 356 nm
absorption maximum (in ClC(Cl)Cl): 344 nm
absorption maximum (in c1ccccc1): 343 nm
SMILES: CC(C)(C)C1Nc2ccccc2C(=O)N1c1ccccc1 (stereo unspecified)

absorption maximum (in C1CCOC1): 400 nm
SMILES: CC(C)(C)/C=C1\C=C(c2ccccc2)C=C1c1ccccc1

absorption maximum (in CO): 540 nm
SMILES: CCOC(=O)CCCCCn1c2ccc(C)cc2c(=O)c2cc3c(cc21)c(=O)c1cc(C)ccc1n3CCCCCC(=O)OCC

absorption maximum (in CC#N): 327 nm
SMILES: C[C@@]12SC(Cl)=CC1=c1nc(-c3ccc(Cl)cc3)[nH]c1=C1C=C(Cl)S[C@]12C

absorption maximum (in ClCCl): 507 nm
SMILES: c1ccc(C2=C(c3ccccc3)c3cccc4c3c(cc3nc5cc(-c6ccccc6)c(-c6ccccc6)cc5nc34)O2)cc1

absorption maximum (in CC#N): 290 nm
absorption maximum (in CO): 291 nm
absorption maximum (in O): 290 nm
SMILES: CCOC(=O)COc1ccc(C(c2c(C)[nH]c3ccccc23)c2c(C)[nH]c3ccccc23)cc1OC

absorption maximum (in ClC(Cl)Cl): 401 nm
SMILES: CO[Si](c1c2ccccc2cc2ccccc12)(c1c2ccccc2cc2ccccc12)c1c2ccccc2cc2ccccc12

absorption maximum (in CC#N): 574 nm
absorption maximum (in CCCCCC): 577 nm
absorption maximum (in CCOC(C)=O): 575 nm
absorption maximum (in CO): 574 nm
absorption maximum (in ClCCl): 579 nm
SMILES: CCCSC1=[N+]2C(=C(c3ccccc3)c3ccc(SCCC)n3[B-]2(F)F)C=C1

absorption maximum (in CCO): 323 nm
SMILES: Cc1cc(=O)oc2cc(O)ccc12

absorption maximum (in CCCCCC): 440 nm
absorption maximum (in ClCCl): 439 nm
SMILES: CC(C)[Si](C#Cc1ccc(C#C[Si](C(C)C)(C(C)C)C(C)C)c2nc3ccccc3nc12)(C(C)C)C(C)C

absorption maximum (in ClCCl): 376 nm
SMILES: C[Si]1(C)O[Si](C)(C)c2cc3c(-c4ccccc4)c4cc(Cl)ccc4nc3cc21
